These results are taken from US8680122B2, “Substituted pyrrolones as allosteric modulators of glucokinase” (Janssen Pharmacetica N.V., priority 2005, dated 2014).

One experiment concerns the target T1, Liver GK (Homo sapiens, UniProt P35557).
T1 construct: (His)6; made in house; host or cells: Escherichia coli
T1 sequence (P35557 1-466 isoform P35557-2): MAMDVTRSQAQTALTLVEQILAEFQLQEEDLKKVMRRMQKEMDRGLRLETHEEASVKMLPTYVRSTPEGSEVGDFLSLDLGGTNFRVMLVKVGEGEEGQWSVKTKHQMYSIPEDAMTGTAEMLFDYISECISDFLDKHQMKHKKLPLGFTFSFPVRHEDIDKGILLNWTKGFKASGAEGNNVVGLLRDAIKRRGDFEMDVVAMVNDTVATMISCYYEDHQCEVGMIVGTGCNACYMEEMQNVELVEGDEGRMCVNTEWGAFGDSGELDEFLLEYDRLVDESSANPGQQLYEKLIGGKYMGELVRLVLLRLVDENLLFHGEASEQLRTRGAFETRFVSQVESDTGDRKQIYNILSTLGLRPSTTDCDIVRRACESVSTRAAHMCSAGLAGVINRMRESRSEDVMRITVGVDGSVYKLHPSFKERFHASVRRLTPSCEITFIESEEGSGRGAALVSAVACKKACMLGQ
In words: Glucokinase enzyme assay, liver GK. The class given is biochemical. The following applies: for EC50: concentration that produces 50% activation above the vehicle control; for activation at 50 µM: percentage increase in GK activity above vehicle control, compound 50 μM, 12 mM glucose; for EC100%: concentration that produces 100% activation above the vehicle control. An excerpt:
(§1) An enzymatic Glucokinase (GK) assay using purified recombinant human liver/pancreas enzyme was used to evaluate the effects of potential small molecule modulators.
(§2) In this assay, GK catalyzes glucose phosphorylation in the presence of ATP. The product of this reaction, glucose-6-phosphate, was then oxidized by an excess of glucose-6-phosphate dehydrogenase to produce gluconate-6-phosphate with concomitant reduction of nicotinamide adenine dinucleotide (NAD). […] Human GK (Liver/Pancreas) was expressed in Escherichia coli as a (His) 6-tagged fusion protein and was purified by metal chelate affinity chromatography. The assay was performed in a final incubation volume of 80 μl in a 96-well clear low UV absorption plates. The incubation mixture consisted of 25 mM HEPES, 2 mM MgSO4, 1 mM dithiothreotol (DTT), 1 mg/mL bovine serum albumin (BSA), 1 mM ATP, 1 mM NAD, and 12 mM glucose, 10 units per mL glucose-6-phosphate dehydrogenase, and +/−300 ng per mL GK. For determination of the affinity (Km) and Vmax, different concentrations of glucose ranging from 0.5 mM to 40 mM were used in the assay; see Grimsby, J., Sarabu, R.; Grippo, J. F.; et. al. Science 2003, 301, 370-373. Production of reduced NAD (Nicotinamide Adenine Dinucleotide) was measured as changes in absorption at 340 nm in 96-well plate reader (Envision model #2101 Multilabel Plate reader). % Activation @ 50 μM was calculated as the percentage increase in GK activity above the vehicle control with the effective concentration of the compound being 50 μM. EC50% (μM) was calculated as the effective concentration of the compound that produces 50% activation above the vehicle control, and EC100% (μM) was calculated as the effective concentration of the compound that produces 100% activation above the vehicle control.

For the next experiment, the target named is T2, Pancreas GK (Homo sapiens, UniProt P35557).
T2 construct: (His)6; made in house; host or cells: Escherichia coli
T2 sequence (P35557 1-465): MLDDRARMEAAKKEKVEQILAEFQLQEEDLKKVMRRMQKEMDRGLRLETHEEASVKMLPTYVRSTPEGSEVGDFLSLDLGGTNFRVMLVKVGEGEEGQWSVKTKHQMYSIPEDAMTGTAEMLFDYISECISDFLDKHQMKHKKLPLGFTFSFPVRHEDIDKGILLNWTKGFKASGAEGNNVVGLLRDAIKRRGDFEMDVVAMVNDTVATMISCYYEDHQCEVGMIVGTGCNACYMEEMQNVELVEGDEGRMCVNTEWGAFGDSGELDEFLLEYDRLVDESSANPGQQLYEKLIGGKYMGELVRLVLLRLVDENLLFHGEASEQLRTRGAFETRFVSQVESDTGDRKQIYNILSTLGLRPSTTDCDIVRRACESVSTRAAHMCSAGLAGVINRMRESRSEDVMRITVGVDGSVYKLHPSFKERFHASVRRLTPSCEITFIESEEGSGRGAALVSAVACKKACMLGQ
The experiment is described as follows: Glucokinase enzyme assay, pancreas GK. In kind it is biochemical. As to conditions: for EC50: concentration that produces 50% activation above the vehicle control; for EC100%: concentration that produces 100% activation above the vehicle control; for activation at 50 µM: percentage increase in GK activity above vehicle control, compound 50 μM, 12 mM glucose.
Description: as §1, §2

Molecules are shown by their SMILES. Several values for one entry are separate records, joined by “and”; a condition that tells them apart may be missing. Equal entries are not always repeated.

At Liver GK, `COc1ccc(CN2C(=O)C(C)=C(C)C2SCC(=O)Nc2nccs2)cc1` (centres unmarked) [Compound 2, 2[1-(4-Methoxy-benzyl)-3,4-dimethyl-5-oxo-2,5-dihydro-1H-pyrrol-2-ylsulfanyl]-N-thiazol-2-yl-acetamide] came in with an EC50 of 9400 nM and an activation at 50 µM of 169%.
As to `COc1ccc(CN2C(=O)C(C)=C(C)C2SCC(=O)Nc2ccccn2)c(OC)c1` (centres unmarked) [Compound 10, 2-[1-(2,4-Dimethoxy-benzyl)-3,4-dimethyl-5-oxo-2,5-dihydro-1H-pyrrol-2-ylsulfanyl]-N-pyridin-2-yl-acetamide], at Liver GK, the EC50 came out at 12200 nM, the “EC100%” value was 39.92 µM and the activation at 50 µM came out at 128%.
On to `COC(=O)c1ccc(NC(=O)CSC2C(C)=C(C)C(=O)N2Cc2cc(OC)cc(OC)c2)nc1` (centres unmarked) [Compound 40], for which, on Pancreas GK, the EC50 was 2300 nM and the “EC100%” value is 19 µM.
On to `COc1ccc(CN2C(=O)C(C)=C(C)C2SCC(=O)Nc2ccc(Cl)cn2)cc1` (centres unmarked) [Compound 8, N-(5-Chloro-pyridin-2-yl)-2-[1-(4-methoxy-benzyl)-3,4-dimethyl-5-oxo-2,5-dihydro-1H-pyrrol-2-ylsulfanyl]-acetamide], for which, on Liver GK, the EC50 amounted to 2720 nM, the “EC100%” value was determined as 9.77 µM and the activation at 50 µM was found to be 169%.
On the same counts, the results for `CC1=C(C)C(SCC(=O)Nc2ccccn2)N(Cc2ccc(F)cc2)C1=O` (centres unmarked) [Compound 12, 2-[1-(4-Fluoro-benzyl)-3,4-dimethyl-5-oxo-2,5-dihydro-1H-pyrrol-2-ylsulfanyl]-N-pyridin-2-yl-acetamide] are 2900 nM, 8.72 µM and 198%.
Turning to `COC(=O)c1ccc(NC(=O)CSC2C(c3ccccc3)=C(c3ccccc3)C(=O)N2Cc2ccc(OC)cc2)nc1` (centres unmarked) [Compound 4], at Liver GK, the EC50 is 19800 nM and 24500 nM; the “EC100%” value is 37.3 µM and 30.4 µM.
As to `COc1ccc(CN2C(=O)C(C)=C(C)C2SCC(=O)Nc2ccc(C)cn2)cc1` (centres unmarked) [Compound 9, 2-[1-(4-Methoxy-benzyl)-3,4-dimethyl-5-oxo-2,5-dihydro-1H-pyrrol-2-ylsulfanyl]-N-(5-methyl-pyridin-2-yl)-acetamide], on Liver GK, the EC50 was determined as 1400 nM, the “EC100%” value came out at 4.9 µM and the activation at 50 µM worked out at 215%.
On the same counts, the results for `CCOC(=O)Cc1csc(NC(=O)CSC2C(C)=C(C)C(=O)N2Cc2ccc(OC)cc2)n1` (centres unmarked) [Compound 7, (2-{2-[1-(4-Methoxy-benzyl)-3,4-dimethyl-5-oxo-2,5-dihydro-1H-pyrrol-2-ylsulfanyl]-acetylamino}-thiazol-4-yl)-acetic acid ethyl ester] are 11600 nM, 38.9 µM and 114%.
On to `COC(=O)c1ccc(NC(=O)CSC2C(C)=C(C)C(=O)N2Cc2ccc(OC(F)F)cc2)nc1` (centres unmarked) [Compound 36, 6-{2-[1-(4-Difluoromethoxy-benzyl)-3,4-dimethyl-5-oxo-2,5-dihydro-1H-pyrrol-2-ylsulfanyl]-acetylamino}-nicotinic acid methyl ester], for which, at Pancreas GK, the EC50 stood at 2500 nM and the “EC100%” value was found to be 18 µM.
Take `COc1ccc(CN2C(=O)C(C)=C(C)C2SCC(=O)Nc2ccccn2)cc1OC` (centres unmarked) [Compound 11, 2-[1-(3,4-Dimethoxy-benzyl)-3,4-dimethyl-5-oxo-2,5-dihydro-1H-pyrrol-2-ylsulfanyl]-N-pyridin-2-yl-acetamide]: on Liver GK, the EC50 was 2410 nM, the “EC100%” value was 5.83 µM and the activation at 50 µM is 243%.
On the same counts, the results for `CC1=C(C)C(SCC(=O)Nc2ccccn2)N(Cc2ccc(OC(F)F)cc2)C1=O` (centres unmarked) [Compound 16, 2-[1-(4-Difluoromethoxy-benzyl)-3,4-dimethyl-5-oxo-2,5-dihydro-1H-pyrrol-2-ylsulfanyl]-N-pyridin-2-yl-acetamide] are 6760 nM, 17.01 µM and 166%.
On to `COC(=O)c1ccc(NC(=O)CSC2C(C)=C(C)C(=O)N2Cc2ccc(OC)c(OC)c2)nc1` (centres unmarked) [Compound 39], for which, on Pancreas GK, the EC50 turned out to be 1140 nM and the “EC100%” value came to 5.3 µM.
For the compound `COc1ccc(CN2C(=O)C(C)=C(C)C2SCC(=O)Nc2ccc(C(=O)O)cn2)cc1` (centres unmarked) [Compound 33], the EC50 at Pancreas GK was 2500 nM and 1600 nM.
Consider `COc1ccc(CN2C(=O)C(C)=CC2SCC(=O)Nc2ccccn2)cc1` (centres unmarked) [Compound 15, 2-[1-(4-Methoxy-benzyl)-4-methyl-5-oxo-2,5-dihydro-1H-pyrrol-2-ylsulfanyl]-N-pyridin-2-yl-acetamide], for which, on Liver GK, the EC50 turned out to be 10000 nM, the “EC100%” value came to 37.08 µM and the activation at 50 µM was 122%.
Take `COC(=O)c1ccc(NC(=O)CSC2C(C)=C(C)C(=O)N2Cc2cccs2)nc1` (centres unmarked) [Compound 38, 6-[2-(3,4-Dimethyl-5-oxo-1-thiophen-2-ylmethyl-2,5-dihydro-1H-pyrrol-2-ylsulfanyl)-acetylamino]-nicotinic acid methyl ester]: at Pancreas GK, the EC50 came out at 1090 nM and the “EC100%” value amounted to 8.9 µM.
At Liver GK, `COc1ccc(CN2C(=O)C(c3ccccc3)=CC2SCC(=O)Nc2nccs2)cc1` (centres unmarked) [Compound 3, 2-[1-(4-Methoxy-benzyl)-5-oxo-4-phenyl-2,5-dihydro-1H-pyrrol-2-ylsulfanyl]-N-thiazol-2-yl-acetamide] displayed an activation at 50 µM of 64.9%.
With `COc1ccc(CN2C(=O)C(C)=C(C)C2SCC(=O)Nc2cnccn2)cc1` (centres unmarked) [Compound 6, 2-[1-(4-Methoxy-benzyl)-3,4-dimethyl-5-oxo-2,5-dihydro-1H-pyrrol-2-ylsulfanyl]-N-pyrazin-2-yl-acetamide], at Liver GK, the EC50 was 6300 nM, the “EC100%” value was found to be 20.1 µM and the activation at 50 µM was 175%.
As to `COC(=O)c1ccc(NC(=O)CSC2C(C)=C(C)C(=O)N2Cc2ccc(F)cc2)nc1` (centres unmarked) [Compound 35, 6-{2-[1-(4-Fluoro-benzyl)-3,4-dimethyl-5-oxo-2,5-dihydro-1H-pyrrol-2-ylsulfanyl]-acetylamino}-nicotinic acid methyl ester], on Pancreas GK, the EC50 came out at 980 nM, the “EC100%” value amounted to 5.3 µM and the activation at 50 µM was determined as 156%.
For `COc1ccc(CN2C(=O)C(C)=C(C)C2SCC(=O)Nc2ccccn2)cc1` (centres unmarked) [Compound 5, 2-[1-(4-Methoxy-benzyl)-3,4-dimethyl-5-oxo-2,5-dihydro-1H-pyrrol-2-ylsulfanyl]-N-pyridin-2-yl-acetamide], at Liver GK, the EC50 worked out at 3300 nM, the “EC100%” value was determined as 8.3 µM and the activation at 50 µM was found to be 222%.
With `CC1=C(C)C(SCC(=O)Nc2ccccn2)N(Cc2ccc(N(C)C)cc2)C1=O` (centres unmarked) [Compound 34, 2-[1-(4-Dimethylamino-benzyl)-3,4-dimethyl-5-oxo-2,5-dihydro-1H-pyrrol-2-ylsulfanyl]-N-pyridin-2-yl-acetamide], at Pancreas GK, the EC50 was 2500 nM, the “EC100%” value was 12 µM and the activation at 50 µM came out at 163%.
On the same counts, the results for `COC(=O)c1ccc(NC(=O)CSC2C(C)=C(C)C(=O)N2Cc2ccc3c(c2)CCO3)nc1` (centres unmarked) [Compound 37] are 1090 nM, 1.09 µM and 209%.
